The compounds below were run against Poly [ADP-ribose] polymerase 1 (Homo sapiens, UniProt P09874) (assay: Enzyme Inhibitory Assay: The activity of the compounds according to the present invention to inhibit the PARP-1 enzyme was examined using a PARP Assay kit (4671-096-K) purchased from Trevigen. The assay was performed following a modified previously reported method by Lee et al [Methods Find, Exp. Clin. Pharmacol., 27, 617-622, 2005].Histone was coated on 384-well plate, which is a small volume PS plate (784101) of Greiner Bio-One, and left at 25 C. for 2 hours. After that, the plate was rinsed four times with PBS (7.5 mM Na2HPO4, 2.5 mM NaH2PO4, 145 mM NaCl, pH 7.4), and in order to prevent non-specific reaction, the Strep-diluent (provided from kit of Trevigen) was added and left at 25 C. for one hour. After one hour, the plate was again rinsed with PBS four times, and the compounds of the Examples in various concentrations were put into reactant containing PARP-1 enzyme (0.12 unit/well), 2x PARP cocktail.).
Chain of Poly [ADP-ribose] polymerase 1 (P09874 whole entry): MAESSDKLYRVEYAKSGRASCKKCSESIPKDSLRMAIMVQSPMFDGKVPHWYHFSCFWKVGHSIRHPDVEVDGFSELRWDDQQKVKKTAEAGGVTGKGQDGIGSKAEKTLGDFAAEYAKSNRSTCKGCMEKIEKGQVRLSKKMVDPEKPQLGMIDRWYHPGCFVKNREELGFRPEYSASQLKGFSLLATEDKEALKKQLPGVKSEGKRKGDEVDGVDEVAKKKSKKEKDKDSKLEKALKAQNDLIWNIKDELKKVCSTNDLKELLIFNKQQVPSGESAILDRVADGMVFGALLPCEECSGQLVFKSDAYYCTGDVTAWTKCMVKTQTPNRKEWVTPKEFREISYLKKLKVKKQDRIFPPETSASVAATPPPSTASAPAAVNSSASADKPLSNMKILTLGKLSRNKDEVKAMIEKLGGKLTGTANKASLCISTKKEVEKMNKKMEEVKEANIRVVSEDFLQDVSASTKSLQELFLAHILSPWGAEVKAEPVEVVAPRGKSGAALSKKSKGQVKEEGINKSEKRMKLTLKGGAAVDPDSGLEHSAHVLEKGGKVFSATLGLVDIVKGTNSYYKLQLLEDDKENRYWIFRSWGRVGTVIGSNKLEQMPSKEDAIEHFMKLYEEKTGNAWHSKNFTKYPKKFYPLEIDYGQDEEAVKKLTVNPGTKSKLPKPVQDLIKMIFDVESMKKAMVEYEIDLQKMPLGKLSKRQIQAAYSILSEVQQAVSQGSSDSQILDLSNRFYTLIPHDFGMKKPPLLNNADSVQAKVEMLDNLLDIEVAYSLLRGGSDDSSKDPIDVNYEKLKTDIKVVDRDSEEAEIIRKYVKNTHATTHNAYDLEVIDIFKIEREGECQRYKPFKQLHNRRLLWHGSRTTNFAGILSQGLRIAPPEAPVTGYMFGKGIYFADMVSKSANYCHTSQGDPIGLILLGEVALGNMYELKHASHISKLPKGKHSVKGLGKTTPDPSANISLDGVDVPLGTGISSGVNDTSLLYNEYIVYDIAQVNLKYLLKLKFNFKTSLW

SMILES | IC50
CN(C)CCOc1ccc2c3c(c(=O)[nH]c2c1)CCCN3 | 1620 nM
CN(C)Cc1cc(O)c2c3c(c(=O)[nH]c2c1)CCCN3 | 750 nM
COc1cc(C[N+](C)(C)C2CCCC2)cc2[nH]c(=O)c3c(c12)NCCC3 | 290 nM

— ChEMBL document CHEMBL3638589, “Tricyclic derivative or pharmaceutically acceptable salts thereof, preparation method thereof, and pharmaceutical composition containing the same” (2014)
